# Test results: ChEMBL document CHEMBL1201862, “PubChem BioAssay data set” (2004)
#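 Grown in 96-well plates, cells were treated for 48 hours with each compound at five concentrations. Insufficient inhibition: endpoint recorded as highest concentration tested. At the GI50, growth is halved.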 Activity calls are given as the source filed them. Cut-off read from the data, not from the text of the source: active = GI50 up to about 1.1 µM and inactive = higher.
# What was measured:
# Assay in all cases: NCI anticancer screen, dose series, 48 h
# EKVX = system: EKVX
# SF-295 = system: SF-295
# IGROV-1 = system: IGROV-1
# SK-MEL-28 = system: SK-MEL-28
# OVCAR-5 = system: OVCAR-5
# MDA-N = system: MDA-N
# SR = system: SR
# UO-31 = system: UO-31
# MDA-MB-231 = system: MDA-MB-231
# OVCAR-3 = system: OVCAR-3
# COLO 205 = system: COLO 205
# MCF7 = system: MCF7
# SW-620 = system: SW-620
# CCRF-CEM = system: CCRF-CEM
# SK-OV-3 = system: SK-OV-3
# SN12C = system: SN12C
# NCI-H23 = system: NCI-H23
# TK-10 = system: TK-10
# SF-268 = system: SF-268
# OVCAR-8 = system: OVCAR-8
# M14 = system: M14
# A549 = system: A549
# 786-0 = system: 786-0
# NCI/ADR-RES = system: NCI/ADR-RES
# T47D = system: T47D
# HCT-116 = system: HCT-116
# NCI-H522 = system: NCI-H522
# HCC 2998 = system: HCC 2998
# SK-MEL-2 = system: SK-MEL-2
# HL-60 = system: HL-60
# NCI-H226 = system: NCI-H226
# SNB-75 = system: SNB-75
# HT-29 = system: HT-29
# ACHN = system: ACHN
# UACC-257 = system: UACC-257
# U-251 = system: U-251
# Hs-578T = system: Hs-578T
# SK-MEL-5 = system: SK-MEL-5
# SF-539 = system: SF-539
# MOLT-4 = system: MOLT-4
# K562 = system: K562
# BT-549 = system: BT-549
# Malme-3M = system: Malme-3M
# HCT-15 = system: HCT-15
# SNB-19 = system: SNB-19
# NCI-H460 = system: NCI-H460
# UACC-62 = system: UACC-62
# KM12 = system: KM12
# PC-3 = system: PC-3
# A498 = system: A498
# CAKI-1 = system: CAKI-1
# HOP-62 = system: HOP-62
# DU-145 = system: DU-145
# OVCAR-4 = system: OVCAR-4
# MDA-MB-435 = system: MDA-MB-435
# RXF 393 = system: RXF 393
# RPMI-8226 = system: RPMI-8226
# HOP-92 = system: HOP-92
structure (smiles),measurement,setting,value
COC(=O)Nc1nc(=O)c2cc(OC)c(OC)cc2[nH]1,GI50,EKVX,> 100 µM (inactive)
same,GI50,SF-295,4.66 µM (inactive)
same,GI50,IGROV-1,15.2 µM (inactive)
same,GI50,SK-MEL-28,63 µM (inactive)
same,GI50,OVCAR-5,> 100 µM (inactive)
same,GI50,MDA-N,2.31 µM (inactive)
same,GI50,SR,> 100 µM (inactive)
same,GI50,UO-31,49.4 µM (inactive)
same,GI50,MDA-MB-231,81.3 µM (inactive)
same,GI50,OVCAR-3,> 100 µM (inactive)
same,GI50,COLO 205,4.4 µM (inactive)
same,GI50,MCF7,6.15 µM (inactive)
same,GI50,SW-620,3.85 µM (inactive)
same,GI50,CCRF-CEM,6.04 µM (inactive)
same,GI50,SK-OV-3,42.1 µM (inactive)
same,GI50,SN12C,64.9 µM (inactive)
same,GI50,NCI-H23,50 µM (inactive)
same,GI50,TK-10,> 100 µM (inactive)
same,GI50,SF-268,> 100 µM (inactive)
same,GI50,OVCAR-8,47.6 µM (inactive)
same,GI50,M14,> 100 µM (inactive)
same,GI50,A549,> 100 µM (inactive)
same,GI50,786-0,45.5 µM (inactive)
same,GI50,NCI/ADR-RES,5.47 µM (inactive)
same,GI50,T47D,36 µM (inactive)
same,GI50,HCT-116,5.2 µM (inactive)
same,GI50,NCI-H522,2.37 µM (inactive)
same,GI50,HCC 2998,71.3 µM (inactive)
same,GI50,SK-MEL-2,> 100 µM (inactive)
same,GI50,HL-60,7.46 µM (inactive)
same,GI50,NCI-H226,37.6 µM (inactive)
same,GI50,SNB-75,11.6 µM (inactive)
same,GI50,HT-29,6.68 µM (inactive)
same,GI50,ACHN,> 100 µM (inactive)
same,GI50,UACC-257,> 100 µM (inactive)
same,GI50,U-251,61.5 µM (inactive)
same,GI50,Hs-578T,66.1 µM (inactive)
same,GI50,SK-MEL-5,6.35 µM (inactive)
same,GI50,SF-539,24.2 µM (inactive)
same,GI50,MOLT-4,6.84 µM (inactive)
same,GI50,K562,3.59 µM (inactive)
same,GI50,BT-549,15.3 µM (inactive)
same,GI50,Malme-3M,5.31 µM (inactive)
same,GI50,HCT-15,17.5 µM
same,GI50,SNB-19,36.4 µM (inactive)
same,GI50,NCI-H460,9.33 µM (inactive)
same,GI50,UACC-62,6.56 µM (inactive)
same,GI50,KM12,5.31 µM (inactive)
same,GI50,PC-3,3.29 µM (inactive)
same,GI50,A498,71.9 µM (inactive)
same,GI50,CAKI-1,20.2 µM (inactive)
same,GI50,HOP-62,44.6 µM (inactive)
same,GI50,DU-145,32.7 µM (inactive)
same,GI50,OVCAR-4,> 100 µM (inactive)
Cc1cccc2nc(-c3ccccc3)cc(=O)n12,GI50,EKVX,7.26 µM (inactive)
same,GI50,SF-295,> 100 µM (inactive)
same,GI50,IGROV-1,49.8 µM (inactive)
same,GI50,SK-MEL-28,> 100 µM (inactive)
same,GI50,OVCAR-5,> 100 µM (inactive)
same,GI50,MDA-N,> 100 µM (inactive)
same,GI50,SR,87.5 µM (inactive)
same,GI50,MDA-MB-231,> 100 µM (inactive)
same,GI50,OVCAR-3,> 100 µM (inactive)
same,GI50,COLO 205,> 100 µM (inactive)
same,GI50,MCF7,50.2 µM (inactive)
same,GI50,SW-620,> 100 µM (inactive)
same,GI50,CCRF-CEM,> 100 µM (inactive)
same,GI50,MDA-MB-435,> 10 µM (inactive)
same,GI50,SK-OV-3,82.8 µM (inactive)
same,GI50,SN12C,69.2 µM (inactive)
same,GI50,NCI-H23,> 100 µM (inactive)
same,GI50,TK-10,68.7 µM (inactive)
same,GI50,SF-268,> 100 µM (inactive)
same,GI50,OVCAR-8,88.3 µM (inactive)
same,GI50,M14,> 100 µM (inactive)
same,GI50,RXF 393,51.8 µM (inactive)
same,GI50,A549,> 100 µM (inactive)
same,GI50,786-0,> 100 µM (inactive)
same,GI50,NCI/ADR-RES,44.9 µM (inactive)
same,GI50,T47D,14 µM (inactive)
same,GI50,HCT-116,> 100 µM (inactive)
same,GI50,NCI-H522,58.9 µM (inactive)
same,GI50,HCC 2998,> 100 µM (inactive)
same,GI50,HL-60,> 100 µM (inactive)
same,GI50,NCI-H226,30.1 µM (inactive)
same,GI50,HT-29,> 100 µM (inactive)
same,GI50,RPMI-8226,> 100 µM (inactive)
same,GI50,ACHN,43.1 µM (inactive)
same,GI50,UACC-257,91.8 µM (inactive)
same,GI50,U-251,> 100 µM (inactive)
same,GI50,Hs-578T,12.5 µM (inactive)
same,GI50,SK-MEL-5,38.2 µM (inactive)
same,GI50,SF-539,> 100 µM (inactive)
same,GI50,MOLT-4,63.5 µM (inactive)
same,GI50,K562,> 100 µM (inactive)
same,GI50,BT-549,85.5 µM (inactive)
same,GI50,Malme-3M,> 100 µM (inactive)
same,GI50,HCT-15,94 µM
same,GI50,SNB-19,> 100 µM (inactive)
same,GI50,NCI-H460,> 100 µM (inactive)
same,GI50,UACC-62,44.1 µM (inactive)
same,GI50,KM12,> 100 µM (inactive)
same,GI50,HOP-92,61.7 µM (inactive)
same,GI50,PC-3,43.7 µM (inactive)
same,GI50,HOP-62,> 100 µM (inactive)
same,GI50,DU-145,> 100 µM (inactive)
same,GI50,OVCAR-4,> 100 µM (inactive)
